In ChEMBL document CHEMBL1201862, “PubChem BioAssay data set” (2004):
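96-well plates; 48 h exposure; 5 concentrations. Endpoints by linear interpolation between flanking doses. Not reached: highest tested concentration assigned. Here, GI50 denotes the concentration required for 50% inhibition of growth.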 The source made the active and inactive calls. No stated cut-off is given here; in the data, active = GI50 up to about 1.1 µM and inactive = higher.

Tests used:
Experiment in all cases: NCI-60 cell line screen, 48 h
[1] = system: CAKI-1
[2] = system: CCRF-CEM
[3] = system: ACHN
[4] = system: SK-MEL-5
[5] = system: SK-MEL-2
[6] = system: SF-268
[7] = system: SR
[8] = system: M14
[9] = system: EKVX
[10] = system: SNB-19
[11] = system: DU-145
[12] = system: LOX IMVI
[13] = system: HCC 2998
[14] = system: MCF7
[15] = system: RPMI-8226
[16] = system: OVCAR-8
[17] = system: HT-29
[18] = system: COLO 205
[19] = system: NCI-H23
[20] = system: Malme-3M

Measured: GI50

N=C(N)SC1c2ccccc2-c2cc([N+](=O)[O-])ccc21 (stereo not given)
inactive: [1] 6.1 µM | [2] 3.3 µM | [3] 6.53 µM | [4] 3.08 µM | [5] 3.51 µM | [6] 4.48 µM | [7] 3.86 µM | [8] 5.15 µM | [9] 10.4 µM | [10] 3.66 µM | [11] 3.88 µM | [12] 5.57 µM | [13] 2.59 µM | [14] 3.24 µM | [15] 4.2 µM | [16] 8.99 µM | [17] 3.66 µM | [18] 2.94 µM | [19] 4.84 µM | [20] 5.19 µM
